Measured values: US5298494A, “Monosaccharides having anti-proliferation and anti-inflammatory activity, compositions and uses thereof” (Greenwich Pharmaceuticals Incorporated, priority 1993, dated 1994)
Like-named read-outs stand apart in the source and are kept apart here.

What was measured:
[1] = tested on: T lymphocytes (normal mouse spleen cells) stimulated with ConA; assay: Mouse Spleen Cell ConA Blastogenesis Assay; format: cell-based, mouse (C57Bl/6); settings: Mus musculus, T-lymphocyte; for inhibition at 0.1 µg/mL: compound 0.1 ug/ml; for inhibition at 1 µg/mL: compound 1 ug/ml; for inhibition at 2.5 µg/mL: compound 2.5 ug/ml; for inhibition at 10 µg/mL: compound 10 ug/ml; for inhibition at 25 µg/mL: compound 25 ug/ml; for inhibition at 100 µg/mL: compound 100 ug/ml
[2] = tested on: Interleukin 1 (IL-1) production by peritoneal macrophages; assay: IL-1 Assay: production of interleukin-1 by peritoneal macrophages (thymocyte bioassay); format: cell-based, mouse (C57B1/6); parameters: inhibition: dose or concentration left out as unconfirmed
Excerpt: Interleukin 1 (IL-1) is a potent immunomodulatory cytokine that has a broad range of pro-inflammatory activities. IL-1 is known to be produced by activated accessory cells such as macrophages. Accessory cell production of IL-1 results in the activation and proliferation of T and B lymphocytes. Therefore, by inhibiting macrophage activation and production of IL-1, the activation and proliferation of the cellular effectors of inflammation can be modulated. Compounds of the invention were screened for inhibitory activity in a classical IL-1 assay. Six to 8 week old male C57B1/6 mice were purchased from Harlan Sprague Dawley. Peritoneal macrophages were elicited by the administration to mice of a single intraperitoneal injection of 0.2 ml of complete Freund's adjuvant. After 48 hours, elicited macrophages were removed from the mice by lavage with the use of Hank's balanced salt solution. […] To the macrophage cultures were added various doses of the compounds of the invention and 10 ug/ml of the macrophage activator lipopolysaccharide (to stimulate IL-1 production). Control cultures consisted of macrophages, lipopolysaccharide and culture medium containing various doses of DMSO only. […] The amount of IL-1 produced in the individual wells was determined in a bioassay for IL-1. This involved the removal of thymuses from mice less than 8 weeks of age. Thymocytes were isolated by passing each thymus through a stainless steel mesh screen. […] After 18 hours cells were harvested and radioactive incorporation (as a measure of cell proliferation) was quantitated in a liquid scintillation counter. The students t test was used to determine the significance of the difference between experimental and control values.

[3] = ConA 1 ug/ml, read-out: % change from control, ConA blastogenic response
[4] = ConA 4 ug/ml, read-out: % change from control, ConA blastogenic response

CCCCCC#CCOC[C@H]1O[C@@]2(OC)COC(C)(C)O[C@H]2[C@@H]1OCC#CCCCCC [Id, methyl 1,3-O-isopropylidene-4,6-di-O-(2-octynyl)-α-D-fructofuranoside]
inhibition at 0.01 µg/mL ([1]; ConA 1 ug/ml, 0.01 ug/ml, read-out: % Change from Control (Table II)): 9% | inhibition at 0.01 µg/mL ([1]; ConA 1 ug/ml, compound 0.01 ug/ml, read-out: % change from control, ConA blastogenic response): 10% | inhibition at 0.1 µg/mL [1, 3]: 25% | inhibition at 1 µg/mL [1, 3]: 67% | inhibition at 2.5 µg/mL [1, 3]: 91% | inhibition at 10 µg/mL [1, 3]: 100% | inhibition at 25 µg/mL [1, 3]: 100% | inhibition at 100 µg/mL [1, 3]: 99% | inhibition at 0.01 µg/mL ([1]; ConA 4 ug/ml, 0.01 ug/ml, read-out: % Change from Control (Table II)): 16% | inhibition at 0.01 µg/mL ([1]; ConA 4 ug/ml, compound 0.01 ug/ml, read-out: % change from control, ConA blastogenic response): 14% | inhibition at 0.1 µg/mL [1, 4]: 27% | inhibition at 1 µg/mL [1, 4]: 75% | inhibition at 2.5 µg/mL [1, 4]: 94% | inhibition at 10 µg/mL [1, 4]: 100% | inhibition at 25 µg/mL [1, 4]: 100% | inhibition at 100 µg/mL [1, 4]: 99% | ^3 H-Thymidine uptake by thymocytes ([2]; 0.001 ug/ml): 10,850 ± 995 cpm | ^3 H-Thymidine uptake by thymocytes ([2]; 0.01 ug/ml): 13,080 cpm | ^3 H-Thymidine uptake by thymocytes ([2]; 0.1 ug/ml): 13,190 ± 560 cpm | ^3 H-Thymidine uptake by thymocytes ([2]; 1 ug/ml): 9,880 ± 1,029 cpm | ^3 H-Thymidine uptake by thymocytes ([2]; 2.5 ug/ml): 6,400 ± 1,070 cpm | ^3 H-Thymidine uptake by thymocytes ([2]; 10 ug/ml): 3,050 ± 191 cpm | ^3 H-Thymidine uptake by thymocytes ([2]; 25 ug/ml): 2,537 ± 182 cpm | ^3 H-Thymidine uptake by thymocytes ([2]; 100 ug/ml): 1,930 cpm | inhibition at 0.001 µg/mL ([2]; Mus musculus, Peritoneal macrophage, 0.001 ug/ml, read-out: % effect on IL-1 production (thymidine uptake by thymocytes)): 0% | inhibition at 0.01 µg/mL ([2]; Mus musculus, Peritoneal macrophage, 0.01 ug/ml, read-out: % effect on IL-1 production (thymidine uptake by thymocytes)): -20% | inhibition at 0.1 µg/mL ([2]; Mus musculus, Peritoneal macrophage, 0.1 ug/ml, read-out: % effect on IL-1 production (thymidine uptake by thymocytes)): -19% | inhibition at 2.5 µg/mL ([2]; Mus musculus, Peritoneal macrophage, 2.5 ug/ml, read-out: % effect on IL-1 production (thymidine uptake by thymocytes)): 44% | inhibition at 10 µg/mL ([2]; Mus musculus, Peritoneal macrophage, 10 ug/ml, read-out: % effect on IL-1 production (thymidine uptake by thymocytes)): 70% | inhibition at 25 µg/mL ([2]; Mus musculus, Peritoneal macrophage, 25 ug/ml, read-out: % effect on IL-1 production (thymidine uptake by thymocytes)): 71% | inhibition at 100 µg/mL ([2]; Mus musculus, Peritoneal macrophage, 100 ug/ml, read-out: % effect on IL-1 production (thymidine uptake by thymocytes)): 78% | inhibition ([2]; Mus musculus, Peritoneal macrophage, read-out: % effect on IL-1 production (thymidine uptake by thymocytes)): 10%
